In ChEMBL document CHEMBL1151880, “Cytotoxicity and structure-activity relationships of four alpha-N-heterocyclic thiosemicarbazone derivatives crystal structure of 2-acetylpyrazine thiosemicarbazone” (Bioorg Med Chem Lett, 2009) one finds IC50 data, which are given here for 4 compounds.

One assay deals with K562. In words: Antitumor activity against human K562 cells assessed as induction of cell death after 48 hrs by MTT assay. The note with it: K562, 48 h. It is filed as functional, cell-based.
Another assay concerns Bel-7402. In words: Antitumor activity against human Bel7402 cells assessed as induction of cell death after 48 hrs by MTT assay. It is filed as functional, cell-based. The note with it: Bel-7402, 48 h.

Regarding `CNC(=S)N/N=C(\c1ccccc1)c1ccccn1`, the IC50 is 0.002 µM in the assay with K562 and 0.138 µM in the assay on Bel-7402.

As to `C/C(=N\N=C(\N)S)c1cnccn1`, the concentration for half-maximal inhibition (IC50) with K562 is 47.5 µM; in the assay with Bel-7402, 238 µM.

With `NC(=S)N/N=C(\c1ccccc1)c1ccccn1`, the IC50 in the assay on K562 was 28.2 µM; with Bel-7402, 376 µM.

In the case of `C/N=C(\S)N/N=C(\C)c1cnccn1`, the IC50 in the assay on K562 came to 25.9 µM; with Bel-7402, 462 µM.
